Source: US20140034581A1, “LIQUID PRODUCTS AND METHOD FOR EMULSIFYING OIL, AND USE THEREOF IN THE TREATMENT OF OIL CONTAMINATIONS” (MAN OIL GROUP AG, priority 2011, published 2014)

Experiment: flash point
Assay type: physicochemical
Details: pure glycol component

With CC(O)CO (stereo not shown) [1,2-Propandiol] the flash point was > 102 °C.
